Source: paper PMC7155171, “Probing the Open Global Health Chemical Diversity Library for Multistage-Active Starting Points for Next-Generation Antimalarials” (ACS Infectious Diseases, 2020)
Where two headings read alike, the source gives them in different places.

Tests used:
P. falciparum Dd2 = assay: SYBR green I asexual blood stage proliferation assay (96 h); assay type: cell-based, Plasmodium falciparum; settings: for IC50 / Emax: Plasmodium falciparum; for CDD P. falciparum Sybr Green I ABS Dd2 Dose Response: Maximum measured (%): Dd2, 96 h
[1] = system: P. falciparum Dd2 (PfLuc) line expressing firefly luciferase, asexual blood stage; assay: microbe, parasite or virus in culture; assay type: cell-based, Plasmodium falciparum; settings: Plasmodium falciparum
[2] = DD2, Sybr Green I, 11-pt dose response, 96hr, read-out: CDD P. falciparum Sybr Green I ABS 11-pt Reconfirmation Dose Response (96hr): IC50
[3] = DD2, Sybr Green I, 11-pt dose response, 96hr, read-out: CDD P. falciparum Sybr Green I ABS 11-pt Reconfirmation Dose Response (96hr): Maximum inhibition (%)
[4] = DD2, read-out: CDD P. falciparum Luciferase ABS 11-pt Reconfirmation Dose Response (48hr): IC50 (μM), 11-pt dose response, 48hr
[5] = DD2, 8-pt dose response, 96hr, read-out: CDD P. falciparum Luciferase ABS 8-pt Reconfirmation Dose Response (96hr): IC50
[6] = DD2, 8-pt dose response, 96hr, read-out: CDD P. falciparum Luciferase ABS 8-pt Reconfirmation Dose Response (96hr): Maximum inhibition (%)
[7] = DD2, 11-pt dose response, 48hr, read-out: CDD P. falciparum Luciferase ABS 11-pt Reconfirmation Dose Response (48hr): Maximum inhibition (%)
[8] = DD2, 11-pt dose response, 96hr, read-out: CDD P. falciparum Luciferase ABS 11-pt Reconfirmation Dose Response (96hr): IC50
[9] = DD2, 11-pt dose response, 96hr, read-out: CDD P. falciparum Luciferase ABS 11-pt Reconfirmation Dose Response (96hr): Maximum inhibition (%)
[10] = DD2, 96 h, read-out: CDD P. falciparum Sybr Green I ABS Dd2 Dose Response: IC50
[11] = DD2, read-out: CDD P. falciparum Luc 11pt dose response (96hr, n=2): IC50 (μM), 96hr, 11-point, n=2
[12] = DD2, read-out: CDD P. falciparum Luciferase 11pt dose response (48hr, n=2): IC50 (μM), 48hr, 11-point, n=2
[13] = DD2, 48hr, 11-point, read-out: CDD P. falciparum Luciferase ABS 11-pt Reconfirmation Dose Response (48hr): Maximum inhibition (%)
[14] = DD2, 96hr, 11-point, read-out: CDD P. falciparum Luciferase ABS 11-pt Reconfirmation Dose Response (96hr): Maximum inhibition (%)
[15] = DD2, 11-pt dose response, 96hr, read-out: P. falciparum Sybr Green I ABS 11-pt Reconfirmation Dose Response (96hr): IC50
[16] = DD2, 11-pt dose response, 96hr, read-out: P. falciparum Sybr Green I ABS 11-pt Reconfirmation Dose Response (96hr): Maximum inhibition (%)
[17] = DD2, read-out: P. falciparum Luciferase ABS 11-pt Reconfirmation Dose Response (48hr): IC50, 11-pt dose response, 48hr
[18] = DD2, 8-pt dose response, 96hr, read-out: P. falciparum Luciferase ABS 8-pt Reconfirmation Dose Response (96hr): IC50
[19] = DD2, 8-pt dose response, 96hr, read-out: P. falciparum Luciferase ABS 8-pt Reconfirmation Dose Response (96hr): Maximum inhibition (%)
[20] = DD2, 11-pt dose response, 48hr, read-out: P. falciparum Luciferase ABS 11-pt Reconfirmation Dose Response (48hr): Maximum inhibition (%)
[21] = DD2, 11-pt dose response, 96hr, read-out: P. falciparum Luciferase ABS 11-pt Reconfirmation Dose Response (96hr): IC50
[22] = DD2, 11-pt dose response, 96hr, read-out: P. falciparum Luciferase ABS 11-pt Reconfirmation Dose Response (96hr): Maximum inhibition (%)
[23] = 96 h incubation, Dd2 luciferase, read-out: 96 hour Pfluc IC50

Structure (SMILES) | IC50 (P. falciparum Dd2; [2]) | Emax (P. falciparum Dd2; [3]) | IC50 [1, 4] | IC50 [1, 5] | Emax [1, 6] | Emax [1, 7] | IC50 [1, 8] | Emax [1, 9] | also measured
COc1cccc(CNCc2ccc(F)c(Cl)c2)c1O [DDD01038250] | 1970 nM | 98.2% | 3.18 µM | 0.56 µM | 93.8% | 93.8% | 1.4 µM | 99.2% | –
COc1cccc(CNCc2ccccc2Cl)c1O [DDD01038247] | 5220 nM | 87.5% | 7.91 µM | 0.9 µM | 89.5% | 79.1% | 1.97 µM | 96.2% | –
Cc1cccc(CNC(CN2CCN(C)CC2)c2ccccc2)c1 (centres unmarked) [DDD01079901] | 449 nM | 98.3% | 2.73 µM | 0.24 µM | 91.5% | 89.2% | 0.53 µM | 99% | –
Cc1cc(C)n(C2CN(CC(O)c3cc(F)ccc3F)C2)n1 (centres unmarked) [DDD01298957] | 733 nM | 98.5% | 1.46 µM | 0.21 µM | 94.9% | 98.6% | 0.854 µM | 100% | –
Cc1cc(CN2CCC(CNS(=O)(=O)c3ccc(Br)s3)CC2)c(C)o1 [DDD01027665] | > 12500 nM | 32.7% | 3.89 µM | 0.63 µM | 89.4% | 82% | 1.08 µM | 95% | –
O=C(Nc1ccc(OC2CCCC2)cc1)C1CCCN1c1nccs1 (centres unmarked) [DDD01297375, O=C(Nc1ccc(OC2CCCC2)cc1)C1CCCN1c1nccs1] | – | – | – | – | – | – | – | – | CDD P. falciparum Sybr Green I ABS Dd2 Dose Response: Maximum measured (%) (P. falciparum Dd2): 45.3%; IC50 (P. falciparum Dd2; [10]): > 12500 nM; IC50 [1, 11]: 0.0372 µM; IC50 [1, 12]: > 10 µM; Emax [1, 13]: 50%; Emax [1, 14]: 94.7%
CCN1CCN(c2ccc(F)cc2C(C)NCc2cscn2)CC1 (centres unmarked) [DDD01070576] | – | – | – | – | – | – | – | – | IC50 (P. falciparum Dd2; [15]): 7180 nM; Emax (P. falciparum Dd2; [16]): 78.2%; IC50 [1, 17]: > 12.5 µM; IC50 [1, 18]: 1.25 µM; Emax [1, 19]: 87.1%; Emax [1, 20]: 47.9%; IC50 [1, 21]: 2.44 µM
O=C(NCCc1ccccc1)NCCN1CCC(c2cccs2)CC1 [DDD01028018] | – | – | – | – | – | – | – | – | IC50 (P. falciparum Dd2; [15]): > 4160 nM; Emax (P. falciparum Dd2; [16]): 69.6%; IC50 [1, 17]: 5.18 µM; IC50 [1, 18]: 1.18 µM; Emax [1, 19]: 87.7%; Emax [1, 20]: 64%; IC50 [1, 21]: 1.42 µM; Emax [1, 22]: 87.1%
Clc1ccccc1C1(c2ccnc(C3CCCC3)n2)CCNCC1 [DDD01245610] | 3550 nM | 76.4% | 4.17 µM | 0.49 µM | 87.3% | 92.8% | 0.755 µM | 98.9% | IC50 [1, 23]: 0.76 µM
Clc1cccc(N[C@H]2CCCN[C@H]2Cc2ccccc2)c1 [DDD01058816] | 3540 nM | 94.8% | 1.92 µM | 1.06 µM | 95.6% | 100% | 0.64 µM | 101% | –
CC(=O)N(c1ccc(F)cc1)c1nc(CN2CCCC2C(C)C)cs1 (centres unmarked) [DDD01075305] | > 4160 nM | 62.8% | 6.08 µM | 0.65 µM | 84.5% | 57.5% | 2.69 µM | 92.1% | –
Fc1cccc(F)c1Cn1c(C2CCNCC2)cc2cccnc21 [DDD01057378] | 570 nM | 68.3% | 1.51 µM | 0.36 µM | 91.4% | 76% | 0.733 µM | 92.1% | –
O=C(CC1CCCC1)NCCNCc1cccc2c1OCCO2 [DDD01067280] | > 4160 nM | 67% | > 12.5 µM | 1.09 µM | 84.7% | 64.2% | > 1.39 µM | 89.2% | –
Clc1ccc(C2(CNC3=NCCN3)CCCC2)cc1 [DDD01067443] | 2260 nM | 98.5% | 5.56 µM | 0.25 µM | 94.9% | 90% | 0.995 µM | 98.3% | IC50 [1, 23]: 1 µM
CCCn1nccc1C(=O)N1CCN(C2CCc3ccccc3C2)CC1 (centres unmarked) [DDD01251134, CCCn1nccc1C(=O)N1CCN(CC1)C1CCc2ccccc2C1] | – | – | – | – | – | – | – | – | CDD P. falciparum Sybr Green I ABS Dd2 Dose Response: Maximum measured (%) (P. falciparum Dd2): 56.3%; IC50 (P. falciparum Dd2; [10]): > 12500 nM; IC50 [1, 11]: 0.224 µM; IC50 [1, 12]: 0.205 µM; Emax [1, 13]: 95.3%; Emax [1, 14]: 100%
Fc1ccc(C2(CNC3=NCCN3)CCCC2)cc1 [DDD01067448] | – | – | – | – | – | – | – | – | IC50 (P. falciparum Dd2; [15]): 3300 nM; Emax (P. falciparum Dd2; [16]): 94.1%; IC50 [1, 17]: 6.73 µM; IC50 [1, 18]: 1.43 µM; Emax [1, 19]: 88.3%; IC50 [1, 21]: 1.18 µM; Emax [1, 22]: 95.9%
O=C(c1scc2c1OCCO2)N1CCOC(CCc2ccccc2)C1 (centres unmarked) [DDD01250278] | 1470 nM | 101% | 1.39 µM | 0.55 µM | 93.1% | 97.2% | 0.767 µM | 100% | –
CN(CCO)C[C@@H]1CN(C2CCN(c3ccccc3Cl)CC2)C[C@@H]1CO [DDD01243670] | 1340 nM | 86.9% | 0.887 µM | 0.4 µM | 94.9% | 96.9% | 0.653 µM | 99.6% | –
Cc1nccn1CCCN1CCCC(c2ccccc2)C1 (centres unmarked) [DDD01251840] | 880 nM | 93.4% | 3.3 µM | 0.25 µM | 91.7% | 83.3% | 0.14 µM | 99.5% | –
COc1ccc2[nH]c(C[C@@H]3C[C@@H](C(C)C)[C@H](CN(C)C)C=C3C)nc2c1 [DDD01025345] | 3630 nM | 67.2% | 12 µM | 0.59 µM | 88.6% | 66.8% | 1.53 µM | 91.5% | –
CN(C)CCCNCCC(Cc1ccccc1)C1CCOC(C)(C)C1 (centres unmarked) [DDD01026664, CN(C)CCCNCCC(Cc1ccccc1)C1CCOC(C)(C)C1] | – | – | – | – | – | – | – | – | CDD P. falciparum Sybr Green I ABS Dd2 Dose Response: Maximum measured (%) (P. falciparum Dd2): 98.8%; IC50 (P. falciparum Dd2; [10]): 251 nM; IC50 [1, 11]: 0.11 µM; IC50 [1, 12]: 0.405 µM; Emax [1, 13]: 98.1%; Emax [1, 14]: 101%
Cc1cccc(NC(=O)c2cccc(OCc3nnnn3C)c2)n1 [DDD01038630] | 2540 nM | 99.2% | 0.916 µM | 0.34 µM | 94.9% | 99.2% | > 0.462 µM | 99.5% | –
CNc1nc(C)cc(NC2CCCN(C3Cc4ccccc4C3)C2)n1 (centres unmarked) [DDD01254555] | 1020 nM | 87% | 2.19 µM | 1.11 µM | 92.9% | 82.6% | 1.07 µM | 100% | –
CC(O)CN1CCC(CNCc2cccc(Cl)c2)CC1 (centres unmarked) [DDD01300263] | 3650 nM | 89.5% | 5.96 µM | 0.76 µM | 89.7% | 89% | 2.57 µM | 98% | –
CCN1CCN(C[C@@H]2CN(c3ncc(Cl)cc3F)C[C@@H]2CO)CC1 [DDD01246828] | 1110 nM | 100% | 1.58 µM | 0.63 µM | 94.8% | 98.3% | 0.961 µM | 99.3% | –
COc1ccccc1C1(NCc2c(C)nc3c(C)cccn23)CCCC1 [DDD01057239] | > 1390 nM | 68.9% | 4.35 µM | 0.71 µM | – | 60.6% | 1.55 µM | 92% | –
OCc1csc(N2CCCC(COc3cccc(F)c3)C2)n1 (centres unmarked) [DDD01251951] | – | – | – | – | – | – | – | – | IC50 (P. falciparum Dd2; [15]): 1630 nM; Emax (P. falciparum Dd2; [16]): 63%; IC50 [1, 17]: > 12.5 µM; IC50 [1, 18]: 1.71 µM; Emax [1, 19]: 79.1%; Emax [1, 20]: 45.9%; IC50 [1, 21]: 3.99 µM; Emax [1, 22]: 82.9%
